Biological target: T1, sstr2 (Homo sapiens, UniProt P30874)
T1 construct: with 1×10^6 THP-1 cells in Gey's Balanced Salt Solution; endogenous in cells; host or cells: THP-1 cells (whole cells, 4° C.)
Assay: Equilibrium binding of [3H]-BN83250 to THP-1 cells
Conditions: competition with [3H]-BN83250
Description: Methods: [^3H]-BN83250 was synthesesized from (S,E)-3-(2′,2′-dimethyldodec-4′-enoylamino)-caprolactam by catalytic hydrogenation using tritium gas over a palladium catalyst (CRB Ltd, Cleveland, UK), yielding the tritiated product at a concentration of […] in ethanol with a specific activity of 220 Ci/mmol. The (S,E)-3-(2′,2′-dimethyldodec-4′-enoylamino)-caprolactam was prepared as follows: (S,S)-3-amino-caprolactam hydro-pyrrolidine-5-carboxylate (10 mmol) and Na2CO3 (30 mmol) in water (30 ml) were added to a solution of 2,2-dimethyl-dodec-4-enoyl chloride (10 mmol) in dichloromethane (30 ml) at ambient temperature and the reaction was stirred for 12 hours. The organic layer was then separated and the aqueous phase was extracted with additional dichloromethane (2×25 ml). The combined organic layers were dried over Na2CO3 and reduced in vacuo. The residue was purified by silica column chromatography (1:1 EtOAc:hexanes to EtOAc) to give […]-3-(2′,2′-dimethyl-dodec-4′-enoyl)amino-caprolactam as a colourless oil (2.12 g, 63%). The radiolabelled compound was stored in the dark at 4° C. until required. Prior to use the specific activity was adjusted by addition of unlabelled BN83250.
For the analysis of binding, individual reactions were set up (in triplicate for each condition), with 1×10^6 THP-1 cells in Gey's Balanced Salt Solution, 10 nM [^3H]-BN83250 (at 50 Ci/mmol) and various concentrations of (S)-3(2′2′-dimethylpropionoylamino)-tetrahydropyridin-2-one (10 pM to 10 μM). Excess (100 μM) unlabelled BN83250 was used to determine the level of non-specific binding. After 2 hours at 4° C. (conditions previously shown to achieve equilibrium binding, and which prevent uptake of the radioligand that would result in an over-estimate of binding) excess label was washed away by centrifugation (3 washes with 5 ml of Gey's Balanced Salt Solution) and the bound radioactivity was determined by scintillation counting of the solubilised cell pellet.

T1 sequence (P30874 whole entry): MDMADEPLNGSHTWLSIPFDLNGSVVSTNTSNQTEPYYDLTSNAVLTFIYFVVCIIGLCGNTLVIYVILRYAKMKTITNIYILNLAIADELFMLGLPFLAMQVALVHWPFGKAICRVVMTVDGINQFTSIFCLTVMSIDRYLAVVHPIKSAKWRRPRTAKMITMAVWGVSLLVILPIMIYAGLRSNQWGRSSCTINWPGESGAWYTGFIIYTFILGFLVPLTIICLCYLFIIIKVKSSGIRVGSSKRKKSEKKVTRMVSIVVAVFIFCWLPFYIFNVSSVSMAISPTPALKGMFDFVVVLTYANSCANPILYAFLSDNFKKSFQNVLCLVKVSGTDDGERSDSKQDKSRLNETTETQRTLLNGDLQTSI

Which “Hill Slope” value does the source give for `CC(C)(C)C(=O)N[C@H]1CCCNC1=O` [Valerolactam, (S)-3-(2′,2′-dimethylpropionoylamino)-tetrahydropyridin-2-one] here?
Its value is “approximately −1.0”.

Source: patent US20120053076A1, “METHODS FOR IDENTIFICATION” (Cambridge Enterprise Limited, priority 2009, published 2012)
